According to patent US7465745B2, “Cathepsin S inhibitors” (Boehringer Ingelheim Pharmaceuticals, Inc., priority 2003, dated 2008):

Biological target: T1, Human recombinant cathepsin S (Homo sapiens, UniProt P25774)
T1 construct: made in house; host or cells: Sf9 insect cells (baculovirus, pFastBac1)
Test: Inhibition of Cathepsin S
Format: biochemical
Conditions: 10 nM enzyme, pH 6.5, 37° C., fluorescence 360/460 nm

T1 sequence (P25774 115-331): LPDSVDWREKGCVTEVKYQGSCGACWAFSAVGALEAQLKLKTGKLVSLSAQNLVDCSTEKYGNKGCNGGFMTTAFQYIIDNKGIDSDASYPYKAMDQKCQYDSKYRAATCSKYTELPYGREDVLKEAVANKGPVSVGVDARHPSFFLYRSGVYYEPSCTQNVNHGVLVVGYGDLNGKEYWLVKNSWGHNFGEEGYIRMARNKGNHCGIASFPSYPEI

IC50: > 100 nM
Structure (SMILES): CCC(C)(C)CC[C@@H](NC(=O)N1CCOCC1)C(=O)NC1(C#N)CCN(C)CC1 [Morpholine-4-carboxylic acid [(R)-1-(4-cyano-1-methyl-piperidine-4-ylcarbamoyl)-4,4-dimethyl-hexyl]-amide]
